In brackets after ≈: the same amount, converted by molar mass.
What was measured:
Assay type in all cases: cell-based
[1] = system: Candida albican ATCC 90873; experiment: In vitro antifungal activity (MIC80), Candida albican ATCC 90873; details: Candida, ATCC90873; Table 2, ATCC 90873; read-out: Minimal inhibitory concentration (MIC80)
Procedure: (§1) In vitro antifungal activities of the inventive antifungal compounds were evaluated using test strains including Candida albican (ATCC 90873, 204276, 62342, 64124, 64550, 96901, MYA-573, MYA-574, MYA-575, MYA-576, MYA-1003) and Aspergillus fumigatus (ATCC 16424). Test samples and positive control samples were prepared by dissolving the inventive compounds and comparative compounds, i.e., amphotericin B, fluconazole and itraconazole, in DMSO, respectively, and each successively diluted with medium to obtain test and positive control solutions having test compound concentrations of 0.125 μg/ml to a maximum concentration not generating turbidity. Minimal inhibitory concentration (MIC80) of each compound was determined as the lowest concentration of the test compounds required to reduce growth by 80% relative to a control strain not treated.
(§2) 1) Test strain: Candida albican ATCC 90873, 204276, 62342, 64124, 64550, 96901, MYA-573, MYA-574, MYA-575, MYA-576, MYA-1003, and Aspergillus fumigatus ATCC 16424 were commercially obtained from The American Type Culture Collection (ATCC) and subcultured in CHEMON Co. Ltd. (amphotericin B was commercially purchased from Sigma, and fluconazole and itraconazole were prepared according to methods described in British Patent No. 2,099,818; and U.S. Pat. No. 4,267,179, respectively).
(§3) 2) Medium and culture condition: Candida albican was cultured in Sabourad Dextrose Agar, YM Agar or Potato Dextrose Agar according to ATCC information at a temperature of 37° C., 35° C., 30° C. or 25° C. Aspergillus fumigatus was cultured in Malt Extract Agar or Potato Dextrose Agar at a temperature ranging from 24 to 27° C.
(§4) 3) Preparation of test samples: the inventive compounds and comparative compounds were each diluted with DMSO to obtain 1 to 2 ml of a test sample in a concentration of 100-folds of the determining maximum concentration (256 μg/ml).
(§5) The test samples were each successively diluted with RPMI 1640 to obtain test solutions having concentrations of […] in a 12×75 mm sterilized disposable culture tube. The final concentration of DMSO was adjusted to […] (v/v).
(§6) 5) Preparation of strain solution and inoculation
(§7) Candida albican strains were each subcultured in Sabourad Dextrose Agar, YM Agar or Potato Dextrose Agar medium at 35° C. for 2˜3 days. In the case of yeasts, a single colony was taken from prominent colonies and suspended in 0.85% sterile physiological saline solution and the turbidity of the suspension was adjusted to 80˜82% at 530 nm, and then diluted 50-fold with RPMI 1640 medium to 1.0×10^3˜5.0×10^3 CFU/ml. The turbidity of fungi was adjusted to 80˜82% and the suspension was diluted 50-fold to […]. Aspergillus fumigatus strains were subcultured in Malt Extract Agar for 7˜10 days, and a single colony was taken from prominent colonies and suspended in 0.85% sterile physiological saline solution and the suspension was adjusted to 0.108 at 530 nm, and then diluted 1000-fold with RPMI 1640 medium to 0.4×10^2˜5×10^4 CFU/ml. The turbidity of fungi was adjusted to 80˜82% and the suspension was diluted 50-fold to 0.4102˜0.5104 CFU/ml.
(§8) The strain solutions thus obtained were each seeded into a sterilized 96-well microplate, 0.1 ml of each test solution were added thereto, and […] of alamarblue was treated to each well (Biosource, #DAL1100). This procedure was repeated 2 times.
(§9) Minimal inhibitory concentration (MIC80) of each compound was determined as the lowest concentration of the test compounds required to reduce growth by 80% relative to a control strain not treated.

[2] = system: Candida albican ATCC MYA-574; experiment: In vitro antifungal activity (MIC80), Candida albican ATCC MYA-574; details: Candida; Table 2, MYA 574; read-out: Minimal inhibitory concentration (MIC80)
Procedure: as §1, §2, §3, §4, §5, §6, §7, §8, §9

[3] = system: Candida albican ATCC 64550; experiment: In vitro antifungal activity (MIC80), Candida albican ATCC 64550; details: Candida, ATCC64550; Table 2, 64550; read-out: Minimal inhibitory concentration (MIC80)
Procedure: as §1, §2, §3, §4, §5, §6, §7, §8, §9

[4] = system: Candida albican ATCC MYA-575; experiment: In vitro antifungal activity (MIC80), Candida albican ATCC MYA-575; details: Candida; Table 2, MYA 575; read-out: Minimal inhibitory concentration (MIC80)
Procedure: as §1, §2, §3, §4, §5, §6, §7, §8, §9

[5] = system: Candida albican ATCC MYA-1003; experiment: In vitro antifungal activity (MIC80), Candida albican ATCC MYA-1003; details: Candida; Table 2, MYA 1003; read-out: Minimal inhibitory concentration (MIC80)
Procedure: as §1, §2, §3, §4, §5, §6, §7, §8, §9

[6] = system: Candida albican ATCC 62342; experiment: In vitro antifungal activity (MIC80), Candida albican ATCC 62342; details: Candida, ATCC62342; Table 2, 62342; read-out: Minimal inhibitory concentration (MIC80)
Procedure: as §1, §2, §3, §4, §5, §6, §7, §8, §9

[7] = system: Candida albican ATCC 64124; experiment: In vitro antifungal activity (MIC80), Candida albican ATCC 64124; details: Candida, ATCC64124; Table 2, 64124; read-out: Minimal inhibitory concentration (MIC80)
Procedure: as §1, §2, §3, §4, §5, §6, §7, §8, §9

[8] = system: Candida albican ATCC MYA-576; experiment: In vitro antifungal activity (MIC80), Candida albican ATCC MYA-576; details: Candida; Table 2, MYA 576; read-out: Minimal inhibitory concentration (MIC80)
Procedure: as §1, §2, §3, §4, §5, §6, §7, §8, §9

[9] = system: Candida albican ATCC MYA-573; experiment: In vitro antifungal activity (MIC80), Candida albican ATCC MYA-573; details: Candida; Table 2, MYA 573; read-out: Minimal inhibitory concentration (MIC80)
Procedure: as §1, §2, §3, §4, §5, §6, §7, §8, §9

[10] = system: Candida albican ATCC 96901; experiment: In vitro antifungal activity (MIC80), Candida albican ATCC 96901; details: Candida, ATCC96901; Table 2, ATCC 96901; read-out: Minimal inhibitory concentration (MIC80)
Procedure: as §1, §2, §3, §4, §5, §6, §7, §8, §9

CC(C)Oc1cccc(N2CCN([C@H](C)[C@](O)(Cn3cncn3)c3ccc(F)cc3F)CC2)n1 [Example 24, (2R,3R)-2-(2,4-difluorophenyl)-3-(4-(6-(isopropyloxy)pyridin-2-yl)piperazin-1-yl)-1-(1H-1,2,4-triazol-1-yl)butan-2-ol] showed an MIC80 [1] of 0.125 µg/mL (≈ 0.265 µM), an MIC80 [2] of 8 µg/mL (≈ 16.9 µM) and an MIC80 [3] of 2 µg/mL (≈ 4.23 µM). The MIC80 [4] was 0.5 µg/mL (≈ 1.06 µM), the MIC80 [5] was > 128 µg/mL and the MIC80 [6] was 8 µg/mL (≈ 16.9 µM). The MIC80 [7] was > 128 µg/mL, the MIC80 [8] was 0.25 µg/mL (≈ 0.529 µM) and the MIC80 [9] was 4 µg/mL (≈ 8.46 µM). For the same compound, the MIC80 [10] was > 128 µg/mL.

C[C@@H](N1CCN(c2nc3ccc(N(C)CCN4CCOCC4)cc3s2)CC1)[C@](O)(Cn1cncn1)c1ccc(F)cc1F [Example 13, (2R,3R)-3-(4-(6-(N-methyl-N-(2-morpholinoethyl)amino)benzothiazol-2-yl)piperazin-1-yl)-2-(2,4-difluorophenyl)-1-(1H-1,2,4-triazol-1-yl)butan-2-ol] showed an MIC80 [1] of 0.125 µg/mL (≈ 0.204 µM), an MIC80 [2] of 16 µg/mL (≈ 26.1 µM) and an MIC80 [3] of 0.5 µg/mL (≈ 0.816 µM). The MIC80 [4] was 0.125 µg/mL (≈ 0.204 µM), the MIC80 [5] was 32 µg/mL (≈ 52.2 µM) and the MIC80 [6] was 0.25 µg/mL (≈ 0.408 µM). For the same compound, the MIC80 [7] was 2 µg/mL (≈ 3.26 µM), the MIC80 [8] was 0.125 µg/mL (≈ 0.204 µM) and the MIC80 [9] was 0.25 µg/mL (≈ 0.408 µM). For the same compound, the MIC80 [10] was 8 µg/mL (≈ 13.1 µM).

In the case of C[C@@H](N1CCN(c2ccc(OC3CCCC3)nc2)CC1)[C@](O)(Cn1cncn1)c1ccc(F)cc1F [Example 31, (2R,3R)-3-(4-(6-(cyclopentyloxy)pyridin-3-yl)piperazin-1-yl)-2-(2,4-difluorophenyl)-1-(1H-1,2,4-triazol-1-yl)butan-2-ol], the MIC80 [1] is reported as 0.125 µg/mL (≈ 0.251 µM), the MIC80 [2] is reported as 4 µg/mL (≈ 8.02 µM) and the MIC80 [3] is reported as 1 µg/mL (≈ 2.01 µM). The MIC80 [4] was 0.25 µg/mL (≈ 0.501 µM), the MIC80 [5] was > 128 µg/mL and the MIC80 [6] was 1 µg/mL (≈ 2.01 µM). For the same compound, the MIC80 [7] was 64 µg/mL (≈ 128 µM), the MIC80 [8] was 0.25 µg/mL (≈ 0.501 µM) and the MIC80 [9] was 2 µg/mL (≈ 4.01 µM). It also gave an MIC80 [10] of 4 µg/mL (≈ 8.02 µM).

C[C@@H](N1CCN(c2cccc(OCC3CC3)n2)CC1)[C@](O)(Cn1cncn1)c1ccc(F)cc1F [Example 21, (2R,3R)-3-(4-(6-(cyclopropylmethoxy)pyridin-2-yl)piperazin-1-yl)-2-(2,4-difluorophenyl)-1-(1H-1,2,4-triazol-1-yl)butan-2-ol] gave an MIC80 [1] of 0.125 µg/mL (≈ 0.258 µM), an MIC80 [2] of 128 µg/mL (≈ 264 µM) and an MIC80 [3] of 8 µg/mL (≈ 16.5 µM). For the same compound, the MIC80 [4] was 0.25 µg/mL (≈ 0.516 µM), the MIC80 [5] was > 128 µg/mL and the MIC80 [6] was 8 µg/mL (≈ 16.5 µM). The MIC80 [7] was > 128 µg/mL, the MIC80 [8] was 0.25 µg/mL (≈ 0.516 µM) and the MIC80 [9] was 8 µg/mL (≈ 16.5 µM). For the same compound, the MIC80 [10] was > 128 µg/mL.

For C[C@@H](N1CCN(c2nc3ccc(N4CCCCC4)cc3s2)CC1)[C@](O)(Cn1cncn1)c1ccc(F)cc1F [Example 10, (2R,3R)-2-(2,4-difluorophenyl)-3-(4-(6-(piperidin-1-yl)benzothiazol-2-yl)piperazin-1-yl)-1-(1H-1,2,4-triazol-1-yl)butan-2-ol], the MIC80 [1] was 0.125 µg/mL (≈ 0.226 µM), the MIC80 [2] was 0.5 µg/mL (≈ 0.903 µM) and the MIC80 [3] was 0.5 µg/mL (≈ 0.903 µM). For the same compound, the MIC80 [4] was 0.125 µg/mL (≈ 0.226 µM), the MIC80 [5] was > 128 µg/mL and the MIC80 [6] was 0.125 µg/mL (≈ 0.226 µM). For the same compound, the MIC80 [7] was 4 µg/mL (≈ 7.22 µM), the MIC80 [8] was 0.125 µg/mL (≈ 0.226 µM) and the MIC80 [9] was 0.5 µg/mL (≈ 0.903 µM). The MIC80 [10] was 4 µg/mL (≈ 7.22 µM).

With C[C@@H](N1CCCN(c2ccc3ccccc3n2)CC1)[C@](O)(Cn1cncn1)c1ccc(F)cc1F [Example 40, (2R,3R)-2-(2,4-difluorophenyl)-3-(4-(quinolin-2-yl)-1,4-diazepan-1-yl)-1-(1H-1,2,4-triazol-1-yl)butan-2-ol] the MIC80 [1] was 0.125 µg/mL (≈ 0.261 µM), the MIC80 [2] was 2 µg/mL (≈ 4.18 µM) and the MIC80 [3] was 2 µg/mL (≈ 4.18 µM). For the same compound, the MIC80 [4] was 0.125 µg/mL (≈ 0.261 µM), the MIC80 [5] was > 128 µg/mL and the MIC80 [6] was 0.25 µg/mL (≈ 0.522 µM). The MIC80 [7] was 8 µg/mL (≈ 16.7 µM), the MIC80 [8] was 0.125 µg/mL (≈ 0.261 µM) and the MIC80 [9] was 0.5 µg/mL (≈ 1.04 µM). The MIC80 [10] was 16 µg/mL (≈ 33.4 µM).
